Assay results published in patent publication US10662193B2, “Carbazole and carboline compounds for use in the diagnosis, treatment, alleviation or prevention of disorders associated with amyloid or amyloid-like proteins” (AC IMMUNE SA, priority 2014, dated 2020).

Target: T1, in vitro aggregated Abeta1-42 (Homo sapiens, UniProt P05067)
T1 construct: Abeta1-42 (Bachem, Switzerland) peptide films were re-suspended in 1% DMSO; purchased Bachem, Switzerland
Test: Assay 2 (filter trap): [3H]RefA competition and Ki on aggregated Abeta1-42 (selectivity tau versus Abeta)
Format: binding
Conditions: Table 24; fold increase of the Ki on aggregated Abeta1-42 versus PHF
Experimental: Recombinant human full-length Tau441 (flTau) was expressed in bacteria and purified in the laboratory of Professor Hilal Lashuel (EPFL, Switzerland). A solution of 8 μM (400 μg/mL) flTau in PBS, 10 μM DTT and 5 μM heparin (all from Sigma-Aldrich) was gently mixed (cradled) for 3 days at 37° C. Cradled flTau aggregates were used at a final concentration of 20 μg/mL in all binding assays. Abeta1-42 (Bachem, Switzerland) peptide films were re-suspended in 1% DMSO and diluted in PBS to a 33 μM (150 μg/mL) suspension that was sonicated until complete dissolution. Aggregation process was done at 37° C. for 24 hours. Aggregated Abeta1-42 was used at a concentration of 20 μg/mL in all binding assays.
AD brain-enriched PHF diluted 1/80 were incubated in the presence of [^3H]RefA at 10 nM and the example compounds of this invention at 2.5 μM (250× excess), for 45 minutes at 37° C. Samples were then analyzed by on GF/B filter plates as described above (in the section “[^3H]RefA radio-binding assay and determination of the dissociation constant (Kd)). Non-specific signal was determined again with an excess of un-labeled RefA and specific binding calculated by subtracting the non-specific signal from the total signal. […]

T1 sequence (P05067 672-713 limits assumed): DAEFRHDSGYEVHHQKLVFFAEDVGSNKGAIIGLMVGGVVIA

Row | SMILES | Fold increase on Abeta1-42 vs PHF
1 | Cn1c2ccncc2c2ccc(Nc3ccc(OC(F)F)cc3)nc21 [Example 9] | 200
2 | Cn1c2ccncc2c2ccc(Nc3cccc(OCCF)c3)nc21 [Example 8] | 0.5
